pIC50: −log10 of the molar value.
Columns and labels:
[1] = system: P. falciparum 803 (artemisinin-resistant strain); assay: In vitro antimalarial IC50 assay; assay type: cell-based, Plasmodium falciparum; conditions: strain 803, 72 h incubation, Giemsa smears
Procedure: Blood stages of the laboratory clones P. falciparum 3D7 (sensitive strain), P. falciparum 803 (artemisinin-resistant strain), and P. falciparum Dd2 (chloroquine-resistant strain) were cultured in vitro according to the method of Trager and Jensens with minor modifications ([37]). Briefly, cultures were maintained in O-positive human erythrocytes (RBCs) as host cells at 2% hematocrit and maintained in complete medium (CM) [RPMI-1640 culture medium supplemented with NaHCO3 (2 mg/mL), hypoxanthine (50 µg/mL), HEPES (5.96 mg/mL), albumax II (1%), and gentamicin (40 µg/mL)]. The cultures were diluted to 1% parasitemia and 2% hematocrit in CM and incubated in a humidified atmosphere with 5% O2, 5% CO2, and 90% N2 at 37°C. Prior to experiments, the cultures were highly synchronized for ring stages using 5% sorbitol twice at a 40-h interval. Briefly, ring stage cultures were centrifuged and the pellet was washed once in incomplete medium (ICM, RPMI-1640 without addition). […] The development of the parasite was observed using light microscopy, and parasitemia was determined by counting at least 10,000 RBCs on Giemsa’s solution-stained thin blood smears.
Highly synchronous ring stage parasites were used to investigate the in vitro antimalarial activity of the peptides. […] Thin blood films stained with Giemsa’s solution were counted under a microscope. […] IC50 was calculated by GraphPad Prism.

[2] = system: P. falciparum 3D7 ring, trophozoite and schizont stages; assay: Stage-specific parasite inhibition assay; assay type: cell-based, Plasmodium falciparum; conditions: 40 µM for 12 hours at ring, trophozoite or schizont stage; reinvasion parasitemia at 50 hpi and after 1:40 dilution and 4 days
Procedure: The activity of An-cecB against different blood stage parasites was evaluated. Parasites were exposed to An-cecB at a lethal concentration of 40 µM for 12 hours at the ring stage [[…] (hours post invasion)], trophozoite stage (17–29 hpi), and schizont stage (29–41 hpi) (Fig. 2a). […] Parasites were then washed and cultured for 4 days […].
To analyze the stage-specific parasite inhibition, highly synchronized ring-stage parasites of the 3D7 strain were cultured in 48-well plates with a starting parasitemia of 0.5% ~ 1% at a hematocrit of 2%. The tested peptide at a concentration of 40 µM was added to ring stage parasites (5 hpi), trophozoites (17 hpi), and schizonts (29 hpi). After treatment for 12 hours, the parasites were washed three times to remove the peptide and the re-invaded parasites (50 hpi) were analyzed. The parasitemia (50hpi) was diluted 1:40 by new RBCs and cultured for a further 4 days. CM was used as a blank control. Parasitemia was counted under a microscope.

[3] = system: RBCs infected by schizonts of P. falciparum 3D7; assay: Hemolytic activity on RBCs infected by schizonts; assay type: cell-based, human; conditions: percoll-purified 3D7 schizonts, 2% hematocrit in PBS
Procedure: To test the hemolytic activity of the peptides against RBCs infected by Plasmodium, schizonts of the P. falciparum 3D7 strain were collected. The parasite culture of mainly schizonts was centrifuged and resuspended to 50% hematocrit. Then, the resuspended culture was carefully laid on top of the gradient with 3 mL 70% and 3 mL 40% percoll-sorbitol solution. After centrifugation at 2,300 × g for 20 min at 20°C, schizonts from the 40/70% interface were collected and washed twice with 10× volume of ICM. The collected parasites were resuspended in PBS to 2% hematocrit for hemolysis assay as described above.

[4] = system: Plasmodium falciparum 3D7; assay: Transmission electron microscope analysis of parasite morphology; assay type: cell-based; conditions: TEM
Procedure: 3D7 strain parasites with parasitemia of 3% ~ 5% at a hematocrit of 2% were planted in 12-well plates, 3 mL/well. A 40-µM concentration of An-cecB or 200 µM An-cecB-1 was added and incubated for 30 min or 60 min. PBS was used as a control.
After incubation, the parasites were washed three times with ICM, and the electron microscope fixative solution (provided by the company) was added to keep the parasites clumped for 2 hours at room temperature. Finally, the samples were sent to a commercial company at 4°C for transmission electron microscope analysis.

[5] = Acute oral toxicity test in mice; assay type: in vivo, BALB/c mice; conditions: for survival number: n = 6, 14 days; for Body weight Day0 / Body weight Day7 / Body weight Day14: n = 6, in g (unit assumed)
Procedure: Mice were housed under standard conditions at a temperature of 24 ± 2°C and a humidity of 50%–80%. Lighting was alternated between day and night every 12 hours. All mouse groups consisted of six animals per cage, and these were fed ad libitum with SPF-grade stock diet and water. All the experimental mice were adapted to the animal room for 1 to 2 weeks before the experiment.
For the acute toxicity test, the mice were divided into four groups. Each group contained six mice. Mice were fasted for 2 hours before feeding with a single oral dose of peptide. The mice in each group were fed with peptide at a single oral dose of 500, 200, and 100 mg/kg body weight. Normal saline (1 mL) was used as control. The general behavior of each mouse was observed continuously for the first 1 hour, then intermittently every 4 hours, and thereafter over a period of 24 hours ([43]).

[6] = 40 µM An-cecB or 200 µM An-cecB-1, total 20 / 22

Procedure for HEK293T cells: (§1) The mammalian cell lines HepG2 and HEK293T were used for cytotoxicity tests. The cells were cultured in Dulbecco’s modified Eagle medium supplemented with 10% fetal bovine serum and 1% penicillin/streptomycin in an incubator at 37°C with 5% CO2. Cells were seeded at a density of 1 × 10^5 cells/mL per well into a 96-well plate overnight and treated with different concentrations of peptides for 48 hours. To analyze the CC50 of peptides, a series of concentrations of peptides (0, 5, 10, 20, 30, 40, 50, 60, and 70 µM) were set to detect their cytotoxic concentrations. Then, 10% CCK-8 solution was added into each well and incubated for another 2 hours. The absorbance was monitored by a microplate reader at 450 nm. PBS was used as a negative control and the inhibition of each drug was normalized to that of the PBS control. CC50 was calculated by GraphPad Prism. Two independent assays with three technical replicates each time were conducted.
Procedure for HepG2 cells: as §1

APRWKFGKRLEKLGRNVFRAA KKALPVIAGYKAL-NH2 [An-cecB]
pIC50 [1]: 5.00 | activity against different blood stage parasites [2]: All parasite stages were killed | hemolytic activity to infected erythrocytes [3]: specifically lysed infected erythrocytes | Normal (number of parasites) ([4]; 40 µM An-cecB or 200 µM An-cecB-1, 30 or 60 min, total 20 (An-cecB), 22 (An-cecB-1)): 7 | Disintegration (number of parasites) [4, 6]: 3 | Parasite disoriented (number of parasites) [4, 6]: 4 | Parasite membrane dissolution (number of parasites) [4, 6]: 7 | Parasite shrunken (number of parasites) [4, 6]: 9 | Vacuole formation (number of parasites) [4, 6]: 3 | survival number ([5]; single oral dose 100 mg/kg): 6 | Body weight Day0 ([5]; single oral dose 100 mg/kg): 20.45±1.56 | Body weight Day7 ([5]; single oral dose 100 mg/kg): 20.9±1.62 | Body weight Day14 ([5]; single oral dose 100 mg/kg): 21.98±0.91 | survival number ([5]; single oral dose 200 mg/kg): 6 | Body weight Day14 ([5]; single oral dose 200 mg/kg, P < 0.01 vs control): 18.4±2.1 | Body weight Day0 ([5]; single oral dose 200 mg/kg): 20.45±1.56 | Body weight Day7 ([5]; single oral dose 200 mg/kg): 19.25±1.8 | survival number ([5]; single oral dose 500 mg/kg, one mouse died on Day8): 5 | Body weight Day14 ([5]; single oral dose 500 mg/kg, P < 0.01 vs control): 16.54±3.24 | Body weight Day0 ([5]; single oral dose 500 mg/kg): 19.55±2.01 | CC50 (HEK293T cells): 57.33 µM | cytotoxicity to HEK293T cells (HEK293T cells): dose-dependently inhibited the cell viability | CC50 (HepG2 cells): 60.43 µM

From publication PMC11232398, “Antimalarial activity of cecropin antimicrobial peptides derived from Anopheles mosquitoes” (Antimicrobial Agents and Chemotherapy, 2024)
